Patent publication US11013730B1, “Composition comprising selenazol or thiazalone derivatives and silver and method of treatment therewith” (Thioredoxin Systems AB, priority 2014, dated 2021)
Converted amounts (≈) assume the structure as drawn. “And” between values parts separate entries of the source, which are not always exact repeats. Equal entries are not always repeated. Where two headings read alike, the source gives them in different places.

Legend:
[1] = Glutathione peroxidase (GPx) activity of the compounds; format: biochemical; conditions: relative; EbSe 6 = 1
H. pylori strains = assay: MIC against H. pylori strains; conditions: Helicobacter pylori
E. coli TrxR [2] = molecular target: T1, E. coli TrxR (Escherichia coli, UniProt P0A9P4); assay: E. coli TrxR inhibition, thioredoxin dependent DTNB reduction assay; format: biochemical
Protocol: Further we examined the effect of ebselen in the reduction of disulfide by E. coli Trx and TrxR using both DTNB and insulin as substrates.
All the benzisoselenazol-3(2H)-one and bisbenzisoselenazol-3(2H)-one derivatives were tested as potential E. coli TrxR inhibitors by standard DTNB assay. […] The reactions were started by adding 1 mM DTNB to the mixture of 100 nM TrxR, 2 μM Trx, 240 μM NADPH, and different concentration of inhibitor (1-40 μM). […] The reactions were started by adding 6 nM TrxR at room temperature. Inhibition constants (Ki) for all the compounds were measured from Dixon plot, which plots 1/v versus […], I=Inhibitor concentration).

E. coli TrxR [3] = molecular target: T1, E. coli TrxR; assay: TrxR activity in bacterial cell lysates, insulin coupled reduction endpoint assay; format: cell-based; conditions: 5 μM silver and 2, 5, 10 μM ebselen, 1 h
Protocol: The reaction continued for 30 min. […] A sample without E. coli Trx was used as the background control.

Staphylococcus aureus = conditions: cited from earlier work
Mammalian TrxR = molecular target: T2, Mammalian TrxR (Homo sapiens, UniProt Q16881); conditions: from ref (3) / (32); cited from earlier work
T2 sequence (Q16881 151-649 limits assumed): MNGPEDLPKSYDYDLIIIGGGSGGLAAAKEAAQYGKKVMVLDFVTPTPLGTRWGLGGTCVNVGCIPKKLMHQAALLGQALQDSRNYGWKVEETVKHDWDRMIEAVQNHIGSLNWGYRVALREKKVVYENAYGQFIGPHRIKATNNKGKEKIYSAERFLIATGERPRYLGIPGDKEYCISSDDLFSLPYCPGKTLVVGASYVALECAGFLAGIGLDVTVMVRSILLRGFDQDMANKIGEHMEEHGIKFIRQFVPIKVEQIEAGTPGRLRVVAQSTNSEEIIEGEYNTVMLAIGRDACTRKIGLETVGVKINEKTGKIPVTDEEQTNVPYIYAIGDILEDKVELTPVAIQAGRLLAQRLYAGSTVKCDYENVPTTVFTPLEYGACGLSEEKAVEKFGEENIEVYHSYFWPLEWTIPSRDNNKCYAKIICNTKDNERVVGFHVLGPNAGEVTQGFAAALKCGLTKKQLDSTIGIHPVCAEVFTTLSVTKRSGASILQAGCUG

E. coli = format: cell-based, Escherichia coli; conditions: 2, 4, 8 μM, LB medium, 16 h
GSH = GSH amount in bacterial cell lysates; conditions: wt E. coli, 5 μM silver and 10 μM ebselen, 1 h
Protocol: To analyze the TrxR activity and GSH amount in the bacteria, the cells were harvested by centrifugation and washed with PBS, then the cells were resuspended in TE buffer (50 mM Tris-HCl, pH 7.5, 1 mM EDTA) containing protease inhibitor cocktail and lysed by sonication. The cell lysates were obtained by centrifugation at 13,000 rpm for 30 min and the protein concentration were measured by Lowry protein assay (Bio-Rad DC).
To measure GSH levels, 10 μg of the cell lysates was added in the solution containing 50 nM GR, 50 mM Tris-HCl, pH 7.5, 200 μM NADPH, 1 mM EDTA, 1 mM DTNB. The absorbance at 412 nm was measured for 5 min.
GSH amounts were measured as the description in material and methods.

Gor DHB4 E. coli = assay: Inhibition of bacterial growth (MIC), Gor DHB4 E. coli; conditions: Escherichia coli, DHB4E.COLI, read-out: MIC for Gor DHB4 E. coli
Source text: (§1) Here E. coli DHB4 strains wt, gshA^−, gor^−, oxyR^− were used as the model to test the antibiotics activity of these ebselen derivatives.

E. coli NHHJ = conditions: cited from earlier work
[4] = tested on: Mycobacterium tuberculosis; assay: Sensitivity of Mycobacterium tuberculosis to ebselen, radiometric BACTEC 460 system; format: cell-based; conditions: medium with 5 g/l albumin, estimate
wild type DHB4 E. coli = assay: Inhibition of bacterial growth (MIC), wild type DHB4 E. coli; conditions: Escherichia coli, DHB4E.COLI, read-out: MIC for wild type DHB4 E. coli
Source text: as §1

E. coli TrxR [5] = molecular target: T1, E. coli TrxR; assay: E. coli TrxR inhibition, thioredoxin dependent DTNB reduction assay; format: biochemical; conditions: Lineweaver-Burk plots, reduction of DTNB; listed as ebselen; read-out: Ki (dissociation constant of inhibitor-TrxR complex), competitive inhibition of E. coli TrxR
E. coli gshA^− strain = conditions: with 5 μM silver, 1 h
Protocol: (§2) The absorbance at 600 nm were measured to detect the growth of the bacteria.
(§3) E. coli strains were cultured until the OD600 got around to 0.4, and then the bacteria were treated with 5 μM silver and different concentrations of ebselen (2, 5, 10 μM).

wild type (wt) E. coli = assay: Growth of wild type E. coli culture treated 1 h with silver and ebselen; conditions: with 5 μM silver
Protocol: as §2, §3

Helicobacter pylori = assay: Bactericidal effects on Helicobacter pylori; format: cell-based; conditions: read-out: minimal bactericidal concentration (MBC)
Source text: The inhibition of ebselen on H. pylori was therefore investigated. […] Taken together, our results strongly support that the inhibition of ebselen on these glutathione deficient bacteria is due to the oxidization of thioredoxin system by ebselen.

Bacillus subtilis = assay: Growth inhibition of Bacillus subtilis by ebselen and silver, A600
Protocol: Bacterial growth was determined as A600 after 16 h at 37° C.

HEK 293T cells = HEK 293T cells growth (cytotoxicity); format: cell-based; conditions: Homo sapiens, HEK-293T; read-out: IG50 for HEK 293T
recombinant rat TrxR = molecular target: T3, recombinant rat TrxR (Rattus norvegicus, UniProt O89049); assay: Inhibition of mammalian (recombinant rat) TrxR
T3 sequence (O89049 1-499): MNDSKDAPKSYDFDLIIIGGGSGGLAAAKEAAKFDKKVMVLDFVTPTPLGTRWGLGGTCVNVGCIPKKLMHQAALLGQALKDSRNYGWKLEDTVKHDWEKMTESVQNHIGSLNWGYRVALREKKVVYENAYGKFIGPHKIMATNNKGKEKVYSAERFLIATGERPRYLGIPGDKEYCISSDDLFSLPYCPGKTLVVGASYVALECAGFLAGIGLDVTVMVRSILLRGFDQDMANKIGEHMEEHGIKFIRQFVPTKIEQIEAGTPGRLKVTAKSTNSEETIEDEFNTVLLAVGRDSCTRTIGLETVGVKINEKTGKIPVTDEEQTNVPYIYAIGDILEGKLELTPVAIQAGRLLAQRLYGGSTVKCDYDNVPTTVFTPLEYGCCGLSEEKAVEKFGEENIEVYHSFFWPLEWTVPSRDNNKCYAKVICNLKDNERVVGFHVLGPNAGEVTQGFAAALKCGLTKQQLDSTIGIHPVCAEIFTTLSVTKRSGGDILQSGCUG

E. coli Trx-(SH)2 = E. coli Trx-(SH)2 (Escherichia coli, UniProt P0AA25); conditions: fluorescence spectroscopy, ref (32); cited from earlier work
[6] = molecular target: E. coli ribonucleotide reductase (Escherichia coli, UniProt P00452); assay: Inhibition of E. coli ribonucleotide reductase; format: biochemical; conditions: data not shown
gshA^− DHB4 E. coli = assay: Inhibition of bacterial growth (MIC), gshA^− DHB4 E. coli
Source text: as §1

HeLa cells = conditions: 24 h
Protocol: RAW 264.7, J774, HEK 293T, Hela cells were cultured in DMEM medium (GIBCO) supplemented with 10% FCS, 100 units/ml penicillin, and 100 μg/ml streptomycin at 37° C. in a 5% CO2 incubator. The cells were seeded in 96 micro-well plates and grown till 70-80% confluency. The cells were treated with different combination of ebselen and silver for 24 h. The cell toxicity was detected by MTT assay (15). Data are means±SD of three independent experiments.
To check whether there are synergistic toxic effects on mammalian cells, the toxicity of combination of ebselen and silver towards HeLa cells was studied. […] Nearly confluent HeLa cells were treated with combination of indicating concentration of ebselen and its analogues and silver for 24 h. then the cell toxicity was detected by MTT assay.

T1 sequence (P0A9P4 whole entry): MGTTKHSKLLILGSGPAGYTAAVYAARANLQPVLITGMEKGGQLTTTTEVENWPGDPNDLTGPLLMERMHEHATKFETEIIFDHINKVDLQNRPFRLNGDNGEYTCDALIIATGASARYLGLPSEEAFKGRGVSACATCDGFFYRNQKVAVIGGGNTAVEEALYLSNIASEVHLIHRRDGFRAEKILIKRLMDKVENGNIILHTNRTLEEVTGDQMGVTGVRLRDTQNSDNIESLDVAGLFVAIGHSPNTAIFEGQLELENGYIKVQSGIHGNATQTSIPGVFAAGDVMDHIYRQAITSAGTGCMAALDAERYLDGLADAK
Sequence of E. coli ribonucleotide reductase (P00452 whole entry): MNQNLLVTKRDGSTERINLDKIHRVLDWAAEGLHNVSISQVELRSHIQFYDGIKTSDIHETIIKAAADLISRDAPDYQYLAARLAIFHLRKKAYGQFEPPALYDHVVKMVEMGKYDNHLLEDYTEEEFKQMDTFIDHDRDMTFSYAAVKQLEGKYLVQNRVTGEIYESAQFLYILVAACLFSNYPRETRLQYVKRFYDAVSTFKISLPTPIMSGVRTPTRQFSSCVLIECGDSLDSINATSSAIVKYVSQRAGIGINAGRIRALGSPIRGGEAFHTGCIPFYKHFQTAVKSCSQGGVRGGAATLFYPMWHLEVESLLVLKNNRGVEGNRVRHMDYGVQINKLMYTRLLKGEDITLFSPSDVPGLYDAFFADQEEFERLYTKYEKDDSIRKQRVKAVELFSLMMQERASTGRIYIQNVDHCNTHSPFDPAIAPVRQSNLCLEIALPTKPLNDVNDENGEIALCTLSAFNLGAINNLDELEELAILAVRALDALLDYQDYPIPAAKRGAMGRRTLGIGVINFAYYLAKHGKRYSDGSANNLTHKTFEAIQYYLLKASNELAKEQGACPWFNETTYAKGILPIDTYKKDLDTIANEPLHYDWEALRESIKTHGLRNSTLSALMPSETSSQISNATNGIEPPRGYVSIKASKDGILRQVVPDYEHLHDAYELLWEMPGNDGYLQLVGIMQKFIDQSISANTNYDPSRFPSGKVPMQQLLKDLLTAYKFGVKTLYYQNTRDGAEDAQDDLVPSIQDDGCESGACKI
Sequence of E. coli Trx-(SH)2 (P0AA25 whole entry): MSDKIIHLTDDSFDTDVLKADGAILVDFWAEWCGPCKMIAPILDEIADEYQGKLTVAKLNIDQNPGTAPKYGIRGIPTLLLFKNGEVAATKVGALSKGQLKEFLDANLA

For `O=c1c2ccccc2[se]n1-c1ccccc1` [EbSe 6, 2-phenyl-1,2-benzisoselenazol-3(2H)-one], the “Relative GPx activity” value [1] was 1, the MIC (H. pylori strains) was 3.13 µg/mL (≈ 11.4 µM) and the MIC (H. pylori strains; NCTC11637) was 3.13 µg/mL (≈ 11.4 µM). The “inhibition of E. coli TrxR (in words)” value (E. coli TrxR [2]) was “strongly inhibited”, the IC50 (E. coli TrxR [2]; DTNB assay, 100 nM TrxR, 2 μM Trx, 240 μM NADPH, 1 mM DTNB, read-out: IC50 for E. coli TrxR) was 6000 nM and the Ki (E. coli TrxR [2]; Dixon plot, 6 nM TrxR, Trx 1, 2 or 4 μM, read-out: Ki for E. coli TrxR) was 300 nM. For the same compound, the “TrxR activity in bacterial lysates” value (E. coli TrxR [3]) was “not affected”, the concentration inhibiting growth (Staphylococcus aureus; Staphylococcus aureus 209P) was 0.20 µg/mL and the “MIC for 90% of S. aureus strains” value (Staphylococcus aureus) was 1.56 μg per ml. For the same compound, the “mode of action on S. aureus” value (Staphylococcus aureus) was “bacteriocidal”, the “sensitivity of Staphyloccus aureus relative to E. coli” value (Staphylococcus aureus) was 100 fold and the concentration inhibiting growth (Staphylococcus aureus; methicillin resistant Staphylococcus aureus) was 0.20 μg per ml. For the same compound, the Km (Mammalian TrxR) was 2.5 µM, the “kcat, mammalian TrxR” value (Mammalian TrxR) was 9.8 s⁻¹ and the “effect of ebselen alone on bacterial growth” value (E. coli) was “did not show the inhibition effects”. For the same compound, the “GSH amount in cell lysate” value (GSH) was “obviously lower than the others”, the MIC (Gor DHB4 E. coli) was 15 µM (≈ 4.11 µg/mL) and the “concentration required to inhibit growth” value (E. coli NHHJ) was “up to 50 μg per ml”. For the same compound, the MIC [4] was < 20 µg/mL, the MIC (wild type DHB4 E. coli) was 40 µM (≈ 11 µg/mL) and the Ki (E. coli TrxR [5]) was 150 nM and 140 nM. The “ebselen concentration that inhibited growth” value (E. coli gshA^− strain) was 2 µM, the “ebselen concentration that inhibited growth” value (wild type (wt) E. coli) was 10 µM and the MBC (Helicobacter pylori; macrolide resistant strains) was 12.5 µg/mL (≈ 45.6 µM). The MBC (Helicobacter pylori; two macrolide sensitive strains) was 3.12 µg/mL (≈ 11.4 µM), the “effect on growth of B. subtilis” value (Bacillus subtilis; ebselen at 2 μM alone) was “did not inhibit the growth” and the “effect on antibacterial activity of silver” value (Bacillus subtilis; ebselen at 2 μM with silver) was “strongly helped the antibacterial activity of silver”. For the same compound, the IC50 (HEK 293T cells) was 120000 nM, the IC50 (recombinant rat TrxR) was > 10000 nM and the “inhibition of mammalian TrxR (in words)” value (recombinant rat TrxR) was “no inhibitory activity”. For the same compound, the “second-order rate constant of direct reduction by reduced E. coli Trx” value (E. coli Trx-(SH)2) was 2e+07 M⁻¹ s⁻¹, the “inhibition of E. coli ribonucleotide reductase” value [6] was “effective direct inhibitor” and the “sensitivity of gshA^− / gor^− strains compared with wild type” value (gshA^− DHB4 E. coli; E. coli strains wt, gshA^−, gor^−) was “Wild type bacteria were more resistant than gor^− and gshA^− strains”. For the same compound, the MIC (gshA^− DHB4 E. coli; Escherichia coli, read-out: MIC for gshA^− DHB4 E. coli) was 26 µM (≈ 7.13 µg/mL), the “synergistic toxicity with silver” value (HeLa cells; 5 μM) was “did not show synergistic of toxicity” and the “synergistic toxicity with silver” value (HeLa cells; 20 μM, silver at high concentration) was “enhanced the toxicity of silver”.
